For seven compounds, Time and Activity results are on record in ChEMBL document CHEMBL1240441, “New pyrazoline derivatives and their antidepressant activity” (Eur J Med Chem, 2010).

Structures are written as SMILES.

In data set [1] the test system is Mus musculus. In words: Antidepressant-like activity in Swiss albino mouse assessed as effect on climbing time at 100 mg/kg, ip after 24 hrs measured for 5 mins by modified forced swimming test (reference value: 56.8 +/- 2.6 sec). Format: functional. The following applies: route intraperitoneal.
Data set [2] concerns Mus musculus. In words: Antidepressant-like activity in Swiss albino mouse assessed as effect on immobility time at 100 mg/kg, ip after 24 hrs measured for 5 mins by modified forced swimming test (reference value: 102.2 +/- 7.5 sec). Format: functional. As to conditions: route intraperitoneal.
In data set [3] the test system is Mus musculus. The data set can be described thus: Antidepressant-like activity in Swiss albino mouse assessed as effect on swimming time at 100 mg/kg, ip after 24 hrs measured for 5 mins by modified forced swimming test (reference value: 95 +/- 9.7 sec). Format: functional. The following applies: route intraperitoneal.
Data set [4] has as its system Mus musculus. The data set can be described thus: Antidepressant-like activity in Swiss albino mouse assessed as reduction of immobility time at 100 mg/kg, ip measured last 4 mins for 6 mins test by tail suspension test (reference value: 116.4 +/- 4.6 sec). Format: functional. The following applies: route intraperitoneal.
Data set [5] has as its system Mus musculus. The data set can be described thus: Neurotoxicity in Swiss albino mouse assessed as effect on motor coordination at 100 mg/kg, ip by rotarod test. Format: toxicity, organism-based. Also noted: dose 100 mg/kg, route intraperitoneal. As to conditions: in vivo.
Data set [6] deals with Mus musculus. In words: Antidepressant-like activity in Swiss albino mouse assessed as effect on swimming time at 10 mg/kg, ip after 24 hrs measured for 5 mins by modified forced swimming test (reference value: 95 +/- 9.7 sec). As to conditions: route intraperitoneal. Format: functional.
For data set [7], the system named is Mus musculus. In words: Antidepressant-like activity in Swiss albino mouse assessed as effect on immobility time at 10 mg/kg, ip after 24 hrs measured for 5 mins by modified forced swimming test (reference value: 102.2 +/- 7.5 sec). Format: functional. The following applies: route intraperitoneal.
The subject of data set [8] is Mus musculus. In words: Antidepressant-like activity in Swiss albino mouse assessed as reduction of immobility time at 10 mg/kg, ip measured last 4 mins for 6 mins test by tail suspension test (reference value: 116.4 +/- 4.6 sec). The following applies: route intraperitoneal. Format: functional.
The test system of data set [9] is Mus musculus. The data set can be described thus: Antidepressant-like activity in Swiss albino mouse assessed as effect on climbing time at 10 mg/kg, ip after 24 hrs measured for 5 mins by modified forced swimming test (reference value: 56.8 +/- 2.6 sec). The following applies: route intraperitoneal. Format: functional.

`Nn1c(CCc2ccc(O)cc2)nnc1SCC(=O)N1N=C(c2cccs2)CC1c1ccc2c(c1)OCO2` (centres undefined): the Time in [1] is recorded as 54.1 s; in data set [2], 69.9 s; in data set [3], 144.7 s; in data set [4], 96.1 s. Also, in [5], the Activity result is “Non-toxic”.
On the same counts, the results for `Nn1c(CCc2ccc(O)cc2)nnc1SCC(=O)N1N=C(c2cccs2)CC1c1ccccc1` (centres undefined) are 43.3 s, 33.3 s, 191.8 s, 69 s and “Non-toxic”.
On the same counts, the results for `Nn1c(CCc2ccc(O)cc2)nnc1SCC(=O)N1N=C(c2cccs2)CC1c1ccc(F)cc1` (centres undefined) are 48.8 s, 52.5 s, 153.3 s, 78.8 s and “Non-toxic”.
The matching figures for `Nn1c(CCc2ccc(O)cc2)nnc1SCC(=O)N1N=C(c2cccs2)CC1c1ccc(Cl)cc1` (centres undefined): 45 s, 40.5 s, 193.7 s, 72.1 s and “Non-toxic”.
`Cc1ccc(C2CC(c3cccs3)=NN2C(=O)CSc2nnc(CCc3ccc(O)cc3)n2N)cc1` (centres undefined): the Time was found to be 54.4 s in data set [1], 58.4 s in data set [2], 147.8 s in data set [3] and 85.9 s in data set [4]. For the same compound, in [5], the Activity result is “Non-toxic”.
On the same counts, the results for `CN(C)c1ccc(C2CC(c3cccs3)=NN2C(=O)CSc2nnc(CCc3ccc(O)cc3)n2N)cc1` (centres undefined) are 53.5 s, 66.2 s, 140 s, 93.5 s and “Non-toxic”.
As for `CNCCC(Oc1ccc(C(F)(F)F)cc1)c1ccccc1` (centres undefined) [FLUOXETINE], the Time came out at 148.5 s in data set [6], 67.6 s in data set [7], 90.6 s in data set [8] and 47.8 s in data set [9].
